Data set [1] deals with T1, breast cancer resistance protein (BCRP) (Homo sapiens, UniProt Q9UNQ0).
T1 construct: endogenous in cells
T1 sequence (Q9UNQ0 1-655): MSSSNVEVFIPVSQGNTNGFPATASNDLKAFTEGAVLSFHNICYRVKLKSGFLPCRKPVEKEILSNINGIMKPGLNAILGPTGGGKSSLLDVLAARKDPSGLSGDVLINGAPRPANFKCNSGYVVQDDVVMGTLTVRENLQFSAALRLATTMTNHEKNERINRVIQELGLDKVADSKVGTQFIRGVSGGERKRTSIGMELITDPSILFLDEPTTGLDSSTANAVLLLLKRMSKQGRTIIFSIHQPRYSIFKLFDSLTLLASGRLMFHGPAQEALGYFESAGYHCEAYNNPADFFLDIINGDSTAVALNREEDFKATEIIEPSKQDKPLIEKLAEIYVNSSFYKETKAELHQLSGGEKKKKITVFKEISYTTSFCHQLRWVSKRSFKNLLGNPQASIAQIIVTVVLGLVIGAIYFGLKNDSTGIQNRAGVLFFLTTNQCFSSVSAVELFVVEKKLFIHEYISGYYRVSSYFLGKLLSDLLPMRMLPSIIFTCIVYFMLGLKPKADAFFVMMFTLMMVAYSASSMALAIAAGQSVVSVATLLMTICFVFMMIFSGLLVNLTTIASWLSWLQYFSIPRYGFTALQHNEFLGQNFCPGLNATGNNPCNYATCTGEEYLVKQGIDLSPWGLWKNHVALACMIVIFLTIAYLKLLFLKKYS
The data set can be described thus: BCRP transporter inhibition. The class given is in vitro ADME. As to the method: (§1) The cell-based bidirectional permeability assay (or monolayer efflux assay) is a method for determining transporter inhibition (such as P-glycoprotein (P-gp) or Breast Cancer Resistance Protein (BCRP)) potential of test compounds in drug discovery. The experimental protocol for this assay is well established and typically, bidirectional permeability of a known substrate is assessed alone and in the presence of a single concentration of test compound to estimate the inhibition potential.
(§2) The monolayer efflux assay, where the ratio of basolateral-to-apical (B→A) permeability versus apical-to-basolateral (A→B) permeability is compared with a value of 1, is regarded as the standard for identifying substrates. Due to concentration-dependent inhibition of active efflux on the apical side by inhibitors, the B→A permeability decreases whilst A→B permeability increases with ratio approaching unity as the dose of inhibitor increases. The affinity of inhibitor to efflux protein(s) may be studied by calculating the active flux that can be obtained from the B→A fluxes in the absence and presence of efflux inhibitors. Inhibition potency, determined by inhibitor concentration-dependent transport assay, is usually represented as an IC50 value, the concentration that gives 50% of maximum inhibition of a known P-gp or BCRP substrate. Specificity of the inhibitor to P-gp or BCRP may be determined by competitive assays, which involve a transport assay of a known substrate in the presence of known inhibitors (specific to various transporters) with and without test compounds. Thus, appropriate design of competitive inhibition assays using known selected substrates and modulators will show the specificity of an inhibitor towards an efflux pump.
(§3) The substrate and inhibitor potential of a test compound for the apical efflux transported breast cancer resistance protein (BCRP) may also be evaluated using a bidirectional permeability assessment where the controls are Ko143 (a potent inhibitor of BCRP) and E3S (estrone-3-sulphate, a substrate for BCRP) and across a range of test compound concentrations such as 1, 5, 20, 100, and 200 μg/mL or 1.6, 3.2, 16, 32, 160 and 320 μg/mL).
(§4) The Caco-2 permeability, P-gp substrate and inhibitory activity, and BCRP substrate and inhibitory activity of Sulfoxide-1, Sufloxide-1A, Sulfoxide-1B, Sulfone-1, and SM-1 was investigated using procedures similar to those described above.

The test system of the next data set is efflux transporter. The data set can be described thus: Efflux substrate activity (monolayer efflux assay). The class given is in vitro ADME. The settings on record: tested concentrations of 12.5 μg/mL and 50 μg/mL. The method, then: as §1, §2
The potential for P-glycoprotein (P-gp) substrate inhibitory activity of a test compound may be evaluated by determining a test compound's Caco-2 permeability in the presence or absence of a P-gp inhibitor such as Cyclosporin A (CsA) or verapamil.
as §3, §4
(§5) As summarized in Table 2 below, except for Sulfoxide-1B, all of the tested compounds had low Caco-2 cell permeability and were weak efflux transporter substrates at the tested concentrations of 12.5 μg/mL and 50 μg/mL.

The target of another data set is T2, P-glycoprotein (P-gp) (Homo sapiens, UniProt P08183).
T2 construct: the P-gp transporter expressed on Caco-2 cell monolayers; endogenous in cells; host or cells: Caco-2
T2 sequence (P08183 whole entry): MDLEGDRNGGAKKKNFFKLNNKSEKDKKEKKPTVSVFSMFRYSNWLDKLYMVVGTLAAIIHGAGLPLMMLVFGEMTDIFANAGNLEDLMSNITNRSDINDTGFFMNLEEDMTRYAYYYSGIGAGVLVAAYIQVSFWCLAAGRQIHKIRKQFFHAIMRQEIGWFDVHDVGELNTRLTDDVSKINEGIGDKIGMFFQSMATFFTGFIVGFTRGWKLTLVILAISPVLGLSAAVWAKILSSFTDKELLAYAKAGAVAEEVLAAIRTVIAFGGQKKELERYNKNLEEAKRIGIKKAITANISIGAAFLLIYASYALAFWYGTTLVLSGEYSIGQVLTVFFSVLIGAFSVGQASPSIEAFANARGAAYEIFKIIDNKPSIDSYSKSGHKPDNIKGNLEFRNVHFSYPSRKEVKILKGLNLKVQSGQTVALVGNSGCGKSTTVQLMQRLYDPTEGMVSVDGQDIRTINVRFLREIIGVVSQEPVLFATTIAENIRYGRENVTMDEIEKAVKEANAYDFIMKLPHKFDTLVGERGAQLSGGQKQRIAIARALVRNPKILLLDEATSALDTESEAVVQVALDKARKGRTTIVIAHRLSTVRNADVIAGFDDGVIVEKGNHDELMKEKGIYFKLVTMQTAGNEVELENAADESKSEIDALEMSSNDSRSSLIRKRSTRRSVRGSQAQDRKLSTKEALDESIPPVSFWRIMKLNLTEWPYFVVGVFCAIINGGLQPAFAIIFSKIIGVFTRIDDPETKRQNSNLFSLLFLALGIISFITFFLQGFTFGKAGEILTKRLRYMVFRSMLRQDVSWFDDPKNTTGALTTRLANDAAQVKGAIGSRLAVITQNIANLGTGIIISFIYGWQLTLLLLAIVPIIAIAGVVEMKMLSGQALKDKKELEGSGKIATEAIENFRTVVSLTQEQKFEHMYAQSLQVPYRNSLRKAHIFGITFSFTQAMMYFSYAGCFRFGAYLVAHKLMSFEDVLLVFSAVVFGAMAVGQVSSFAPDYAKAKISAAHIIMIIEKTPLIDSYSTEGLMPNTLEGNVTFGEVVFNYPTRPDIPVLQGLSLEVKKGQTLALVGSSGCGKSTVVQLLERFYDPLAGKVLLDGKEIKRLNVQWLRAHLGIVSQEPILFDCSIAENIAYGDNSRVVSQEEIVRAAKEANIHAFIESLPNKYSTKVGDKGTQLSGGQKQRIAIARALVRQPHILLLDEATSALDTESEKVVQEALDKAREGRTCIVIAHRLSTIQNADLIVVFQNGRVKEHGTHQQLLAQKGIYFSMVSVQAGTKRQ
Nature of the data set: P-gp transporter inhibition. The class given is in vitro ADME. As to the method: as §1, §2
The potential inhibitory activity of a compound on the P-gp transporter expressed on Caco-2 cell monolayers may be investigated in experiments monitoring the bi-directional transport of a test compound in the presence or absence of a P-gp inhibitor such as Cyclosporin A (CsA) or verapamil.
The potential inhibitory activity of a compound on the P-gp transporter expressed on Caco-2 cell monolayers may also be investigated in experiments monitoring the bi-directional transport of [^3H]-digoxin in the presence of increasing concentrations of a test compound (such as 1, 5, 20, 100, and 200 μg/mL or 1.6, 3.2, 16, 32, 160 and 320 μg/mL). If the efflux of [^3H]-digoxin is not inhibited by a test compound, the test compound is likely a poor inhibitor of P-gp. If the efflux of [^3H]-digoxin is inhibited by a test compound, the IC50 value may be calculated using a non-linear regression of permeability data collected at various concentrations.
as §4

A further data set has as its system Caco-2 monolayers. The data set can be described thus: Caco-2 permeability. The settings on record: tested concentrations of 12.5 μg/mL and 50 μg/mL. The class given is in vitro ADME, human.
Text: Differentiated Caco-2 cells form a polarized epithelial cell monolayer that provides a physical and biochemical barrier to the passage of ions and small molecules. Using commercially available kits, the Caco-2 monolayer may be used as an in vitro model of the human small intestinal mucosa to predict the intestinal permeability or absorption of orally administered drugs. Researchers have shown a correlation for some molecules between the in vitro apparent permeability (Papp) across Caco-2 monolayers and the in vivo fraction absorbed.
The permeability of a compound may be evaluated in a bi-directional transport experiments at multiple concentrations (such as 1, 2, 5, 20, 100 and 200 μg/mL) using Caco-2 monolayers. The apparent permeability coefficients (Papp) for a compound may be calculated and compared with the permeability of a high permeability marker (such as labetalol) and a low permeability marker (such as mannitol).
as §4, §5

Another data set in a line: Aqueous solubility. The class given is physicochemical. The settings on record: for aqueous solubility compared with SM-1: across a range of pH's. The source says:
The aqueous solubility of Sulfoxide-1, Sufloxide-1A, Sulfoxide-1B, Sulfone-1, and SM-1 was investigated.

The mark [2] stands for this setting: acetate buffer, pH 4.5, aqueous buffer, Acetate Buffer pH 4.5, read-out: Solubility.
Where [3] appears, read: phosphate buffer, pH 6.5, aqueous buffer, Phosphate Buffer pH 6.5, read-out: Solubility.
The mark [4] stands for this setting: 0.1N HCl, simulated gastric fluid, 0.1N HCl, read-out: Solubility.

SMILES strings stand for the structures. Values after ≈ are worked out from the molar mass of the structure shown. Like-named read-outs stand apart in the source and are kept apart here. Marks after values point to notes of the source that are not given here.

The term IC50 denotes the concentration at which inhibition is half-maximal. A high value points to weaker potency in that assay. Usually solubility stands for the dissolved amount per volume that the medium holds.

Regarding `CCCO[C@H]1CC[C@H](N(C(=O)Nc2ncc([S+]([O-])CC(=O)O)s2)C2CCCCC2)CC1` (single isomer, unassigned) [Sulfoxide-1B, {2-[3-Cyclohexyl-3-(trans-4-propoxy-cyclohexyl)-ureido]-thiazol-5-ylsulfinyl}-acetic acid], the “BCRP inhibitory activity, rank among the tested compounds” value (“BCRP inhibitory activity” below) in data set [1] is “weakest BCRP inhibitors”. For the same compound, the 50% inhibitory concentration (IC50) (in data set [1]; against P-glycoprotein (P-gp)) was over 212 µM throughout. In the data set with efflux transporter, the “Efflux Transporter Substrate” value was “not an efflux transporter substrate and No”. Further, on P-glycoprotein (P-gp), the “P-gp inhibitory activity, rank among the tested compounds” value was “weakest P-gp inhibitor”. Moreover, the “Caco-2 Permeability” value in the data set with Caco-2 monolayers was “Moderate”. The solubility was 120 µg/mL (≈ 0.254 mM) in the data set “Aqueous solubility” (0.1N HCl), 1850 µg/mL (≈ 3.92 mM) in “Aqueous solubility” (Acetate Buffer pH 4.5) and 1990* μg/mL in the data set “Aqueous solubility” (Phosphate Buffer pH 6.5). In “Aqueous solubility”, the “aqueous solubility compared with SM-1” value is given as “much greater aqueous solubility than SM-1”.

Regarding `CCCO[C@H]1CC[C@H](N(C(=O)Nc2ncc(SCC(=O)O)s2)C2CCCCC2)CC1` [SM-1, {2-[3-cyclohexyl-3-(trans-4-propoxy-cyclohexyl)-ureido]-thiazol-5-ylsulfanyl}-acetic acid, reference compound], the “BCRP inhibitory activity” value in data set [1] is on record as “strongest BCRP inhibitor”. The values for the IC50 (in data set [1]; against P-glycoprotein (P-gp)) were 19.5 µM and 115 µM, respectively. For the same compound, the “Efflux Transporter Substrate” value in the data set with efflux transporter is listed as “Yes”. The “Caco-2 Permeability” value in the data set with Caco-2 monolayers is “Low”. In addition, the solubility in “Aqueous solubility” (setting [2]) came out at 0.44 µg/mL (≈ 0.000966 mM); in “Aqueous solubility” (setting [3]), 21 µg/mL (≈ 0.0461 mM).

Turning to `CCCO[C@H]1CC[C@H](N(C(=O)Nc2ncc([S+]([O-])CC(=O)O)s2)C2CCCCC2)CC1` (relative stereo) [Sulfoxide-1, {2-[3-Cyclohexyl-3-(trans-4-propoxy-cyclohexyl)-ureido]-thiazol-5-ylsulfinyl}-acetic acid], the “BCRP inhibitory activity” value in data set [1] is given as “weakest BCRP inhibitors”. Also, the IC50 in data set [1] is over 212 µM; against P-glycoprotein (P-gp) it was about 212 µM. The “Efflux Transporter Substrate” value with efflux transporter is “Yes”. Moreover, in the data set with Caco-2 monolayers, the “Caco-2 Permeability” value is given as “Low”. Also, the solubility in the data set “Aqueous solubility” (setting [4]) was 30 µg/mL (≈ 0.0636 mM); in “Aqueous solubility” (setting [2]), 2570 µg/mL (≈ 5.45 mM); in the data set “Aqueous solubility” (setting [3]) it was 2930 µg/mL (≈ 6.21 mM). The “aqueous solubility compared with SM-1” value in the data set “Aqueous solubility” is listed as “much greater aqueous solubility than SM-1”.

Regarding `CCCO[C@H]1CC[C@H](N(C(=O)Nc2ncc(S(=O)(=O)CC(=O)O)s2)C2CCCCC2)CC1` [Sulfone-1, {2-[3-Cyclohexyl-3-(trans-4-propoxy-cyclohexyl)-ureido]-thiazol-5-ylsulfonyl}-acetic acid], in data set [1], the “BCRP inhibitory activity” value is listed as “weakest BCRP inhibitors”. For the same compound, the IC50 in data set [1] is over 205 µM; against P-glycoprotein (P-gp), about 205 µM. Besides, the “Efflux Transporter Substrate” value in the data set with efflux transporter was “Yes”. Moreover, the “Caco-2 Permeability” value with Caco-2 monolayers is “Low”. Further, the solubility is 10 µg/mL (≈ 0.0205 mM) in “Aqueous solubility” (setting [4]), 2070 µg/mL (≈ 4.24 mM) in “Aqueous solubility” (setting [2]) and 2100 µg/mL (≈ 4.31 mM) in the data set “Aqueous solubility” (setting [3]). In addition, in the data set “Aqueous solubility”, the “aqueous solubility compared with SM-1” value is reported as “much greater aqueous solubility than SM-1”.

Consider `CCCO[C@H]1CC[C@H](N(C(=O)Nc2ncc([S+]([O-])CC(=O)O)s2)C2CCCCC2)CC1` (single isomer, unassigned) [Sulfoxide-1A, {2-[3-Cyclohexyl-3-(trans-4-propoxy-cyclohexyl)-ureido]-thiazol-5-ylsulfinyl}-acetic acid], for which the IC50 in data set [1] was about 170 µM; against P-glycoprotein (P-gp) it was about 138 µM. The “Efflux Transporter Substrate” value in the data set with efflux transporter was “Yes”. The “Caco-2 Permeability” value with Caco-2 monolayers was “Low”. The solubility in “Aqueous solubility” (setting [4]) was 120 µg/mL (≈ 0.254 mM); in “Aqueous solubility” (setting [2]), 1630 µg/mL (≈ 3.46 mM); in the data set “Aqueous solubility” (setting [3]), 1940 µg/mL (≈ 4.11 mM). In addition, the “aqueous solubility compared with SM-1” value in “Aqueous solubility” was “much greater aqueous solubility than SM-1”.

The values are drawn from patent publication US12391658B2, “Sulfoxide and sulfone glucokinase activators and methods of use thereof” (vTv Therapeutics LLC, priority 2020, dated 2025).
